Measured values as given in US5028605A, “8-alkylaminoimidazo(1,2-a)pyrazines and derivatives, their preparation and their application in therapy” (l'Universite de Montpellier I, priority 1986, dated 1991).

Experiments:
duodenum = assay: Antispasmodic activity: barium chloride-induced contraction of isolated rat duodenum (Magnus); details: for ED50 Theo/ED50 product (antispasmodic activity): barium chloride 10^-4 M, isolated rat duodenum, 37° C., mean of 5 to 6 determinations
Experimental: Fragments of duodenum are removed from male rats (200 g), fasted for 24 hours and killed by decapitation, and are mounted, after being washed, in a thermostatted (37° C.) isolated organ cell and maintained in survival in Tyrode's solution according to Magnus's classical technique.
The spasmogenic agent used is barium chloride (10^-4 M).
In the first instance, the spasmogenic agent is added to the nutrient bath and, as soon as the contraction of the organ reaches its maximum, the relaxant agent is added to the medium. Working in relation to a fixed concentration of barium chloride with variable concentrations of relaxant, the ED50 of the latter, capable of reducing the induced contraction by 50%, is determined.
The results expressed in Table IV below show the ratio ED50 Theo/ED50 product, established on the basis of the mean of the results of 5 to 6 determinations per product (ED50theophylline=8×10^-4 M).

uterine horns = assay: Uterine relaxant activity: spontaneous contractions of isolated rat uterine horn fragments; details: for ED50 Theo/ED50 product (uterine relaxant activity): isolated rat uterine horn, spontaneous contractions, mean of 5 to 10 determinations
Experimental: Female rats (150-180 g) are killed by decapitation 24 hours after the intraperitoneal administration of stilbestrol (0.1 mg/kg). The uterine horns are removed and fragments mounted in a thermostatted (37° C.) isolated organ cell and maintained in survival in oxygenated De Jalon's solution of composition (mM): NaCl (153.8); KCl (5.6); CaCl2 (2.16); NaHCO3 (1.8); dextrose (5.5). One end of the uterine fragment is maintained fixed, while the other is attached to a recording myograph under a tension of the order of 0.5 g. The spontaneous uterine contractions are recorded on a kymograph. The organ is left at rest for 30 minutes and washed three times. The test products are introduced directly into the bath after being dissolved in De Jalon's solution, and the activity measured (ED50) corresponds to the dose capable of reducing the magnitude of the spontaneous contractions by 50%.
The results expressed in Table V below show the ratio ED50 Theo/ED50 product, established on the basis of the mean of the results of 5 to 10 determinations per product. (ED50 theophylline=0.9×10^-3 M)

[1] = test system: histamine-induced bronchoconstriction, guinea pigs; assay: Antibronchospastic activity: histamine-induced bronchospasm in anesthetized guinea pigs; format: in vivo, guinea pig; details: for ED50 Theo/ED50 product (bronchospasm induced in guinea pigs): intravenous, 30 seconds before histamine, mean of 5 to 8 determinations
Experimental: Guinea pigs of both sexes weighing between 400 and 600 g are anesthetized with ethyl carbamate ([…] i.p.). After tracheotomy, the animal is placed under artificial respiration at a constant flowrate (Palmer pump 1 m1/100 g×60/min). A take-off at the tracheal cannula enables the volume of air to be gaged at each inhalation by means of a Marey drum. Bronchospasm is induced by intraveneous (jugular) administration of histamine. For each animal, the dose of histamine (8 to 12 μg/kg) inducing an increase in the recording trace equal to double its initial value is determined. The dose adopted should provide three identical responses at intervals of 10 minutes.
The test product is administered intraveneously and then, 30 seconds later, histamine is administered again.

guinea pig trachea = assay: Isolated guinea pig trachea: anti-contractional activity against carbachol; details: for EC50 Theo/EC50 product (anti-contractional activity, trachea): carbachol 10^-4 M, isolated guinea pig trachea, mean of 5 to 6 determinations
Experimental: Guinea pigs of both sexes weighing on average 400 to 600 g are sacrificed, and the tracheas are removed and placed at 37° C. in an oxygenated environment (95% O2 -5% CO2) in Krebs fluid of the following composition (mM): NaCl (116), MgSO4 (1.2), KCl (3.7), CaCl2 (2.6), KH2 PO4 (2.2), NaHCO3 (24.9), glucose (10). The tracheal segments are then mounted horizontally between two hooks, one of which is fixed to the base of the isolated organ cell and the other is attached to a myograph under a tension of 0.5 g. The organ is left at rest for one hour and is subjected to four washes. The contraction-inducing reagent (carbachol) is added at a concentration (10^-4 M) greater than the concentration giving the maximum effect. After stabilization of the contractional effect, gradually increasing accumulative amounts of the test products are added to the cell. The bronchodilatory effect is measured as the percentage inhibition of the maximal contraction and EC50 represents the concentration inhibiting this concentration by 50%.

left atrium = assay: Cardiac activity: inotropic function, isolated electrically stimulated left atrium; design: species or system guinea pig; details: concentration producing increase in magnitude of 0.5 g
Excerpt: (§1) Guinea pigs of both sexes weighing between 300 and 500 g are killed by decapitation. The hearts are rapidly removed and placed in an oxygenated environment (95% O2 -5% CO2) in Chenoweth-Koelle's solution of the following composition (mM): NaCl (120), KCl (5.63), CaCl2 (2.0), dextrose (9.7), MgCl2 (2.0), NaHCO3 (26.0). The right and left atria are then separated from the heart and mounted in an isolated organ cell. The right atrium beats spontaneously and the left atrium is electrically stimulated. The organs under a tension of 1 g are left at rest for two hours and washed every fifteen minutes.
(§2) The products are added directly to the nutrient bath. The right atrium is used for measuring the modifications of rate (chronotropic function) whereas the left atrium indicates the modifications brought about in the contractile force (inotropic function).
For the inotropic function, the concentration capable of producing an increase in magnitude of 0.5 g with respect to the basic contraction is measured.

right atrium = assay: Cardiac activity: chronotropic function, isolated spontaneously beating right atrium; design: species or system guinea pig; details: concentration producing 20% increase in rate
Excerpt: as §1, §2
For the chronotropic function, the concentration capable of producing a 20% increase in the basic value of the rate is determined.

mice = assay: Motor activity: spontaneous activity in mice (neurosedative effect); format: in vivo, mouse; details: male mice, 50 minutes
Experimental: The measurement of the neurosedative effect is based on the test of activity measurements in mice. […] Five minutes after the administration, the animals are placed in activity-measuring cages, which record their movements digitally by means of the interruption of beams of light. The results are recorded in Table IX and expressed as the percentage variation (increase or decrease ) in activity compared with the controls during a period of 50 minutes following the administration.

SMILES | EC50 Theo/EC50 product (anti-contractional activity, trachea) (guinea pig trachea) | ED50 Theo/ED50 product (antispasmodic activity) (duodenum) | ED50 Theo/ED50 product (uterine relaxant activity) (uterine horns) | ED50 Theo/ED50 product (bronchospasm induced in guinea pigs) [1] | ED Theo/ED Product, inotropic function (left atrium) | ED Theo/ED Product, chronotropic function (right atrium) | spontaneous activity - % variation compared with the controls, decrease (.dwnarw.) (mice; 55 μmol/kg intraperitoneally) [%] | spontaneous activity - % variation compared with the controls, decrease (.dwnarw.) (mice; 166 μmol/kg intraperitoneally) [%] | spontaneous activity - % variation compared with the controls, increase (.uparw.) (mice; 55 μmol/kg intraperitoneally) [%] | EC50 (duodenum; Rattus norvegicus, reduces barium chloride-induced contraction by 50%, read-out: ED50 theophylline (antispasmodic)) [µM] | EC50 (uterine horns; Rattus norvegicus, reduces magnitude of spontaneous contractions by 50%, read-out: ED50 theophylline (uterine relaxant)) [µM] | ED50 ([1]; Cavia porcellus, iv, read-out: ED50 Theo (bronchospasm induced in guinea pigs)) [µmol/kg] | EC50 (guinea pig trachea; Cavia porcellus, 50% inhibition of maximal carbachol contraction, read-out: EC50 Theo (anti-contractional activity, trachea)) [µM] | spontaneous activity - % variation compared with the controls, increase (.uparw.) (mice; 166 μmol/kg intraperitoneally) [%]
Nc1nc(Br)cn2ccnc12 [Compound 8, 8-amino-6-bromoimidazo[1,2-a]pyrazine] | 11.3 | 32 | 3 | 4 | 10 | 2 | 53 | 83 |  |  |  |  |  | 
CCOC(=O)c1cn2ccnc(N)c2n1 [Compound 17, ethyl 8-aminoimidazo[1,2-a]pyrazine-2-carboxylate] |  | 13 | 2.6 | 1.1 | < 1 | < 1 |  | 17 | 28 |  |  |  |  | 
Cn1c(=O)c2[nH]cnc2n(C)c1=O [theophylline, reference compound] |  |  |  |  |  |  |  |  | 130 | 800 | 900 | 43 | 1000 | 170
CNc1nccn2c(Br)cnc12 [Compound 6, 3-Bromo-8-methylaminoimidazo[1,2-a]pyrazine] | 12.5 | 32 | 9 | 2 | 5 | 6 | 25 | 57 |  |  |  |  |  | 

Second part, led by results:

EC50 Theo/EC50 product (anti-contractional activity, trachea) (guinea pig trachea) | SMILES | ED50 Theo/ED50 product (antispasmodic activity) (duodenum) | ED50 Theo/ED50 product (uterine relaxant activity) (uterine horns) | ED50 Theo/ED50 product (bronchospasm induced in guinea pigs) [1] | ED Theo/ED Product, inotropic function (left atrium) | ED Theo/ED Product, chronotropic function (right atrium) | spontaneous activity - % variation compared with the controls, decrease (.dwnarw.) (mice; 55 μmol/kg intraperitoneally) [%] | spontaneous activity - % variation compared with the controls, decrease (.dwnarw.) (mice; 166 μmol/kg intraperitoneally) [%] | spontaneous activity - % variation compared with the controls, increase (.uparw.) (mice; 55 μmol/kg intraperitoneally) [%] | EC50 (duodenum; Rattus norvegicus, reduces barium chloride-induced contraction by 50%, read-out: ED50 theophylline (antispasmodic)) [µM] | EC50 (uterine horns; Rattus norvegicus, reduces magnitude of spontaneous contractions by 50%, read-out: ED50 theophylline (uterine relaxant)) [µM] | ED50 ([1]; Cavia porcellus, iv, read-out: ED50 Theo (bronchospasm induced in guinea pigs)) [µmol/kg] | EC50 (guinea pig trachea; Cavia porcellus, 50% inhibition of maximal carbachol contraction, read-out: EC50 Theo (anti-contractional activity, trachea)) [µM] | spontaneous activity - % variation compared with the controls, increase (.uparw.) (mice; 166 μmol/kg intraperitoneally) [%]
5 | CCNc1nc(Br)cn2ccnc12 [Compound 10, 6-bromo-8-ethylaminoimidazo[1,2-a]pyrazine] | 40 | 7.2 | 2 | 4 | 15 | 13 | 73 |  |  |  |  |  | 
8.3 | CNc1nc(Br)cn2ccnc12 [Compound 9, 6-bromo-8-methylaminoimidazo[1,2-a]pyrazine] | 20 | 5.6 | 5.4 | 50 | 25 | 74 | 83 |  |  |  |  |  | 
